Drawing on a melting point compilation (Tetko et al.; mined from patent text by program, amines drawn as free bases though some values may be those of a salt), this text covers melting point for 86 molecules.

Some results are limits rather than exact numbers.

With `CC(C)c1[nH][nH]c(=O)c1Cc1ccc2ccccc2c1`, the melting point (as a rule, the temperature, or range, at which the solid turns liquid) fell in the range of 143 to 145 °C.
Under `CCC1CS(=O)(=O)c2ccccc2C2(c3ccccc3)OC12` (stereo unspecified) stands 185 to 186 °C.
Under `COC(=O)c1cc2c(nc1C1=NC(C)(C(C)C)C(=O)N1)CCOC2` (stereo unspecified) stands 208 to 220 °C; under `N#CN1CCC(c2nn(-c3ccccc3)c3ccccc23)CC1`, 124 to 125 °C.
Molecule `CCOc1ncnc2c(N3CCOCC3)nc(N3CCNCC3)nc12` came in with a melting point of 168 to 170 °C.
In the case of `O=c1[nH]c(=O)n(C2CC(O)C(CO)O2)cc1C(I)=CI` (stereo unspecified) it was 103 to 105 °C.
Under `CC(C)C(C)(C#N)N1C(=O)C=C(Nc2ccccc2CO)C1=O` (stereo unspecified) stands 39 to 45 °C; under `COc1ccc(S(=O)(=O)N(Cc2cccnc2)c2c(C(=O)O)cnc3onc(C)c23)cc1`, 244 to 246 °C; under `CN(CCOc1ccc(CCCN2C(=O)COC2=O)cc1F)c1ccccn1`, 124 to 125 °C.
On to `COCn1ccnc1C(O)(c1ccc(C(F)(F)F)cc1)c1ccc(C(F)(F)F)cc1`, for which the melting point lay in the range of 160 to 161 °C.
In the case of `CS(=O)(=O)N(Cc1cccnc1)c1ccc(Cl)cc1Cl` it was 180 to 186 °C; in that of `O=C1N=C(NN2CCCC2)SC1=Cc1cccc(-c2cc(F)c(O)c(C34CC5CC(CC(C5)C3)C4)c2)c1`, 293 to 296 °C; in that of `O=C1NC(=S)C(c2c[nH]c3ccccc23)=C1c1c[nH]c2ccccc12`, 254 to 257 °C.
In the case of `Nc1scc(CN2CCN(c3ccccc3)CC2)c1C(=O)c1ccc(Cl)cc1` it was 112 °C; in that of `CS(=O)(=O)OC(c1cccc(C(OS(C)(=O)=O)(C(F)(F)F)C(F)(F)F)c1)(C(F)(F)F)C(F)(F)F`, 125 °C; in that of `CCC1(CC)C(=O)N(CC(O)Cc2cc(C)c(O)c(C(C)(C)C)c2)C(=O)N(CC(O)Cc2cc(C)c(O)c(C(C)(C)C)c2)C1=O` (stereo unspecified), 147 to 148 °C.
In the case of `NS(=O)(=O)CC(=O)c1ccccc1` it was 97 to 99 °C; in that of `CCOC(=O)c1nnc2n1-c1sc(Cl)cc1C(c1ccccc1Cl)=NC2`, 180 to 182 °C; in that of `CCCCCCCCCCCCCCCCNc1ccc(COC(C)=O)cc1`, 43 to 45 °C.
In turn, `CN(C(=O)c1sc2cc(C(=O)O)ccc2c1S)c1ccc2sc3ccccc3c(=O)c2c1` gave a melting point of 210 to 212 °C.
With `Nc1cc(C(=O)O)cc(S(N)(=O)=O)c1Oc1ccc(OCc2ccccc2)cc1`, the melting point lay within 264 to 265 °C.
For `CCOC(=O)C(C)Oc1ccc(Oc2ccc3cc(Br)ccc3n2)cc1` (stereo unspecified), the melting point came out at 85 °C.
In the case of `NC(Cc1ccc(F)cc1)=NO` it was 104 to 106 °C; in that of `COc1ccc(/C(=C/C(=O)O)c2cc(C)cc(Cl)c2)cc1`, 190 to 192 °C.
Under `COc1ccc(C(=O)Nc2ccc(C)c(NC(=O)c3cccc(N(C)C)c3)c2)cc1OC` stands 204 to 205 °C; under `CC(=S)OC(c1ccccc1)C1(C)OCCO1` (stereo unspecified), 49 to 52 °C; under `CCc1ccc2c(c1)C=Cc1cc(C)ccc1C2c1cn(-c2ccnc(N3CCCC3C(=O)O)n2)c(=O)[nH]c1=S` (stereo unspecified), 175 °C.
`Cc1cc(S(=O)(=O)Nc2onc(C)c2Br)c(C)s1` yielded a melting point of 77 to 80 °C.
As for `CCc1cnc(N2CCN(c3nc(-c4ccccc4)nc4ccccc34)CC2)nc1`, the melting point was in the range of 137 to 138 °C.
In the case of `Cc1ccc(C#Cc2cccc(N)c2)cc1` it was 88 °C.
`CS(=O)(=O)NC1CCC(=O)N2CCCC(C(=O)NC(CC(=O)O)C(=O)COc3cccnc3)N2C1=O` (stereo unspecified) had a melting point of 120 to 125 °C.
For the molecule `CCNC(=O)C1(CCCc2ccccc2)c2ccccc2Oc2ccccc21`, the melting point came out at 130 °C.
Under `CC(=O)NC(Cc1ccc(OCCc2nc(-c3ccccc3)oc2C)cc1)C(N)=O` (stereo unspecified) stands 224 to 226 °C; under `CC(=O)Nc1nc2ccc(S(=O)(=O)n3c(CCCC(=O)O)cc4cc(Cl)ccc43)cc2s1`, > 250 °C; under `C(=C1CCc2cccnc21)c1ccccc1`, 74 to 75 °C.
In the case of `CCCCSc1ccc(C2CC(=O)C(C(=O)CC)=C(O)C2)cc1` (stereo unspecified) it was 79 °C.
`CC(O)(C1CCC(Oc2ncnc3ccccc23)CC1)C(F)(F)F` (stereo unspecified) registered a melting point of 159 to 160 °C.
Under `NCC(c1ccccc1)C(CN)c1ccccc1` (stereo unspecified) stands 144 to 145 °C; under `COc1ccc(CN2C(=O)C[C@H]2[C@@H]2COC(C)(C)O2)c(OC)c1`, 85 to 86 °C.
In the case of `Cc1c(C)c(N2C(=O)c3ccccc3C2=O)c(C)c2c1OC(C)(C)C2`, the melting point lay in the range of 166 to 168 °C.
For `CCC(=O)N(CC)c1cccc(-c2ccc(Cl)nn2)c1`, the melting point was 118 to 119 °C.
In the case of `COC1(c2ccc(CCc3cc(F)cc(F)c3NC(=O)C(C)(C)C)cc2)CCOCC1` it was 147 to 148 °C; in that of `O=C(O)c1ccc(OC(=O)c2ccc(O)c(C34CC5CC(CC(C5)C3)C4)c2)nc1`, 112 to 113 °C.
Under `COC(=O)n1nnnc1-c1cnc2ccccn2c1=O` stands 182 to 183 °C.
As to `CC(Cl)c1nc2c(C(F)(F)F)cccc2c(O)c1C(=O)Nc1nccs1` (stereo unspecified), the melting point fell in the range of 190 to 192 °C.
`Cc1ncsc1C(C)(O)c1ccco1` (stereo unspecified): the melting point lay in the range of 127 to 128 °C.
With `O=C1NC(=O)c2c1c(-c1ccccc1)cc1[nH]c3ccc(OP(=O)(OCc4ccccc4)OCc4ccccc4)cc3c21`, the melting point lay in the range of 193 to 194 °C.
In the case of `O=Cc1cc2ccsc2c2ccccc12` it was 96 to 96.5 °C; in that of `CC1(C)C(=O)Nc2cc([N+](=O)[O-])c(NC(=O)c3ccncc3)cc21`, 310 to 318 °C; in that of `CCOC(=O)C(=O)CC(=O)c1c(-c2ccccc2)cc2ccccn12`, 100 to 102 °C.
Under `Cn1nc(-c2cccc(-n3ncc4cc(C(C)(C)C)cc(F)c4c3=O)c2CO)cc(Nc2cnc([C@H](O)CO)cn2)c1=O` stands 218 to 224 °C; under `CC1(C)CC(N2C(=O)C=CC2=O)CC(C)(C)N1`, 104 to 111 °C; under `CCOC(=O)C1CCCCN1C(=O)c1ccc(Cl)c(C2(C)C(=O)N(Cc3ccc(OC)cc3OC)c3ccc(Cl)cc32)c1` (stereo unspecified), 113 °C.
In turn, `CCc1ccc(C(=O)O)c([N+](=O)[O-])c1` gave a melting point of 111 °C.
`COc1ccc(C2=NN(C3CCN(S(=O)(=O)N(C)C)CC3)C(=O)CC2)cc1OC` returned a melting point of 103 to 106 °C.
In the case of `Cc1cc(C2=NN(C(=O)NC3CC3)C(C)Cc3cc4c(cc32)OCO4)ccc1[N+](=O)[O-]` (stereo unspecified) it was 171 to 175 °C; in that of `COc1ccc(N2CCC(=O)C2)cc1`, 104 to 105 °C.
Under `CCOc1c(-c2nnn[nH]2)oc2c3ccccc3n(-c3ccccc3)c12` stands 189 to 192 °C; under `CCCSc1nc2c(cc1C#N)C(=O)CC(C)(C)C2`, 100 to 102 °C.
In the case of `NC(=S)c1cc2c(cn1)[nH]c1ccccc12` it was 274 to 276 °C.
As for `FC(F)(F)Oc1ccc(C=CC(C=Cc2ccc(OC(F)(F)F)cc2)=NNC2=NCCCN2)cc1`, the melting point was in the range of 140 to 142 °C.
Under `COc1ccc(-c2cccc(NC(C)=O)c2)cc1OC1CCCC1` stands 112 to 114 °C.
Molecule `N#Cc1c(N2CCCCC2)cc(-c2ccc3ccccc3c2)c2c1C(=O)c1ccccc1-2` returned a melting point of 182 to 184 °C.
The molecule `CC(C)(C)OC(=O)N1CCC(c2c(F)cc(N3C[C@H](COS(C)(=O)=O)OC3=O)cc2F)CC1` had a melting point of 125 to 126 °C.
Under `CCN(CC)CCNC(=O)c1cc(I)cc2cc3ccccc3nc12` stands 108 to 110 °C.
In the case of `CCOC(=O)c1nc[nH]c1C(=O)OCC` it was 175 to 177 °C; in that of `CCCc1nc2c(N)nc3cc(Oc4ccc(N)cc4)ccc3c2n1CC(C)C`, 190 to 191 °C; in that of `COc1cc2c(c(Cl)c1Cl)C(=O)C(C)(C)C2c1ccccc1` (stereo unspecified), 146 to 148 °C.
On to `COc1ccc(-c2cnc3cc4cnn(C(C)=O)c4cc3n2)cc1F`, for which the melting point was in the range of 261 to 265 °C.
Under `CC1CC(C)(C)NC(c2ccccc2)=N1` (stereo unspecified) stands 86 to 87 °C; under `O=S(=O)(Nc1cccnc1Nc1ccccc1)c1ccccc1`, 148 to 150 °C; under `COC(=O)c1ccc(Cl)cc1NC(=O)Cc1ccsc1`, 96 to 97 °C.
In the case of `CN(c1ncc(Br)cn1)[C@H]1CC[C@H](C#CCO)CC1` it was 156 to 157 °C; in that of `O=S1(=O)c2cccc3cccc(c23)N1CCCN1CCN(c2ccccc2F)CC1`, 112 °C; in that of `COc1ccc(/C=C/C(=O)c2c(OC)cc(OC)cc2OC(=O)[C@H](C)NC(=O)OCc2ccccc2)cc1`, 163 to 164 °C.
Molecule `O=C(Nc1cccnc1Cl)c1ccccc1[N+](=O)[O-]` showed a melting point of 160 °C.
In the case of `CCOc1cc(COc2nn(Cc3ccccc3)cc2CO)ccc1OCc1nc(-c2ccco2)oc1C`, the melting point was in the range of 137 to 138 °C.
Consider `N#CC1=C(c2ccc(Br)s2)Nc2n[nH]cc2C1c1cccc2nonc12` (stereo unspecified), for which the melting point turned out to be 208 °C.
`CC(OC(=O)C1CC(=O)c2cc(F)ccc2O1)c1ccccc1` (single isomer, unassigned; (+)) showed a melting point of 98 °C.
Under `Cc1ccc(C2=CCC(C)(C)c3cc(C(=O)c4ccc5cc(C(=O)O)ccc5c4)ccc32)cc1` stands 267 °C.
In the case of `O=C(C=Cc1ccccc1Sc1ccc(Cl)cc1)N1CCCC1=O` it was 144 to 147 °C.
Under `Cn1cnc(C(=O)N2CCC(NC(=O)Nc3ccc(C(F)(F)F)cc3)CC2)c1` stands 222 to 226 °C.
`COCCOc1cc2c(cc1-c1ccc(F)cc1)NC(=O)CC(c1cccc(-n3ccnc3)c1)=N2` displayed a melting point of 196 to 197 °C.
In the case of `Cc1csc2[nH]cc(C(=O)c3ccc(Cl)cc3)c12` it was 223 °C; in that of `c1ccc(CN2CCCC3(CC2)CC(c2ccccc2)=NO3)cc1` (stereo unspecified), 42 to 57 °C; in that of `CC1(C)Oc2ccc(C#N)cc2[C@@H](Nc2cc(Cl)ncn2)[C@@H]1O` (relative stereo), 204 to 208 °C.
